Measured values taken from US6949571B2, “1,2-dihydropyridine compounds, process for preparation of the same and use thereof” (Eisai Co., Ltd., priority 2000, dated 2005).
Like-named read-outs stand apart in the source and are kept apart here.

System: AMPA receptor
[1] = Table 2, suppression of AMPA-induced calcium influx into nerve cells
[2] = Table 1, primary culture of rat embryo cerebral cortex nerve cells, 2 μM AMPA, 1 μM MK-801
[3] = Table 3, primary culture of rat embryo cerebral cortex nerve cells, 2 μM AMPA, 1 μM MK-801
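Note: primary rat embryonic cortical neurons grown on an astrocyte layer in 96-well plates, used after at least 8 to 10 days in culture, Fura2-AM fluorescence ratio at 340/380 nm excitation.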

SMILES: O=c1c(-c2ccccc2CO)cc(-c2ccccn2)cn1-c1ccccc1 [Example 147, 3-(2-Hydroxymethylphenyl)-5-(2-pyridyl)-1-phenyl-1,2-dihydropyridin-2-one]
- IC50 [1]: 1600 nM

SMILES: N#Cc1ccccc1-c1cc(-c2ccccn2)cn(-c2ccccc2CO)c1=O [Example 149, 3-(2-Cyanophenyl)-5-(2-pyridyl)-1-(2-hydroxymethylphenyl)-1,2-dihydropyridin-2-one]
- IC50 [1]: 100 nM

SMILES: N#Cc1ncccc1-c1cc(-c2ncccn2)cn(-c2cccnc2)c1=O [Example 265, 3-(2-Cyanopyridin-3-yl)-1-(3-pyridyl)-5-(2-pyrimidinyl)-1,2-dihydropyridin-2-one]
- IC50 [1]: 700 nM

SMILES: N#Cc1ccccc1-c1cc(-c2ccccn2)cn(-c2cccc(OCCCCN3CCCCC3)c2)c1=O [Example 249, 3-(2-Cyanophenyl)-1-[3-(4-piperidinobutyl-1-oxy)phenyl]-5-(2-pyridyl)-1,2-dihydropyridin-2-one]
- IC50 [1]: 300 nM

SMILES: N#Cc1ccccc1-c1cc(-c2ccc(O)cn2)cn(-c2ccccc2)c1=O [Example 163, 3-(2-Cyanophenyl)-5-(5-hydroxypyridin-2-yl)-1-phenyl-1,2-dihydropyridin-2-one]
- IC50 [1]: 8200 nM

SMILES: NC(=O)c1ccccc1-c1cc(-c2ccccn2)cn(-c2ccccc2)c1=O [Example 140, 3-(2-Aminocarbonylphenyl)-5-(2-pyridyl)-1-phenyl-1,2-dihydropyridin-2-one]
- IC50 [1]: 6600 nM

SMILES: COc1ncccc1-c1cc(-c2ccccn2)cn(-c2ccccc2)c1=O [Example 81, 3-(2-Methoxy-3-pyridyl)-5-(2-pyridyl)-1-phenyl-1,2-dihydropyridin-2-one]
- IC50 [2]: 2700 nM

SMILES: COc1ccccc1-c1cc(-c2ccccn2)cn(-c2cccnc2)c1=O [Example 129, 3-(2-Methoxyphenyl)-5-(2-pyridyl)-1-(3-pyridyl)-1,2-dihydropyridin-2-one]
- IC50 [2]: 2600 nM

SMILES: N#Cc1ccccc1-c1cc(-c2ccccn2)cn(-c2cncc(COCc3ccccc3)c2)c1=O [Example 115, 3-(2-Cyanophenyl)-5-(2-pyridyl)-1-(3-benzyloxymethylpyridin-5-yl)-1,2-dihydropyridin-2-one]
- IC50 [2]: 60 nM

SMILES: Cc1ccnc(-c2cc(-c3ccccc3C#N)c(=O)n(-c3ccccc3)c2)c1 [Example 197, 3-(2-Cyanophenyl)-5-(4-methylpyridin-2-yl)-1-phenyl-1,2-dihydropyridin-2-one]
- IC50 [1]: 2900 nM

SMILES: O=c1c(-n2cccc2)cc(-c2ccccn2)cn1-c1ccccc1 [Example 320, 3-(Pyrrol-1-yl)-5-(2-pyridyl)-1-phenyl-1,2-dihydropyridin-2-one]
- IC50 [3]: 2300 nM

SMILES: COc1ccccc1-c1cc(-c2ccccc2C#N)c(=O)n(-c2cccnc2)c1 [Example 52, 3-(2-Cyanophenyl)-5-(2-methoxyphenyl)-1-(3-pyridyl)-1,2-dihydropyridin-2-one]
- IC50 [2]: 1100 nM

SMILES: N#Cc1ccccc1-c1cc(-c2ccccn2)cn(-c2ccc(C=O)cc2)c1=O [Example 100, 3-(2-Cyanophenyl)-5-(2-pyridyl)-1-(4-formylphenyl)-1,2-dihydropyridin-2-one]
- IC50 [2]: 400 nM

SMILES: O=c1c(-c2ccncn2)cc(-c2ccccn2)cn1-c1ccccc1 [Example 256, 1-Phenyl-3-(4-pyrimidinyl)-5-(2-pyridyl)-1,2-dihydropyridin-2-one]
- IC50 [1]: 1200 nM

SMILES: COc1cncc(-n2cc(-c3ccccn3)cc(-c3ccccc3C#N)c2=O)c1 [Example 118, 3-(2-Cyanophenyl)-5-(2-pyridyl)-1-(3-methoxypyridin-5-yl)-1,2-dihydropyridin-2-one]
- IC50 [2]: 100 nM

SMILES: COc1cccc(-n2cc(-c3ccccn3)cc(-c3cccnc3F)c2=O)c1 [Example 80, 3-(2-Fluoro-3-pyridyl)-5-(2-pyridyl)-1-(3-methoxyphenyl)-1,2-dihydropyridin-2-one]
- IC50 [2]: 300 nM

SMILES: COc1cccc(-n2cc(-c3ccccn3)cc(-c3ccccc3Cl)c2=O)c1 [Example 74, 3-(2-Chlorophenyl)-5-(2-pyridyl)-1-(3-methoxyphenyl)-1,2-dihydropyridin-2-one]
- IC50 [2]: 200 nM

SMILES: O=c1c(-c2nc3ccc(Cl)cc3[nH]2)cc(-c2ccccn2)cn1-c1ccccc1 [Example 355, 3-(6-Chloro-1H-benzimidazol-2-yl)-5-(2-pyridyl)-1-phenyl-1,2-dihydropyridin-2-one]
- IC50 [3]: 200 nM

SMILES: N#Cc1ccccc1-c1cc(-c2cccs2)cn(-c2ccccc2)c1=O [Example 46, 3-(2-Cyanophenyl)-5-(thiophen-2-yl)-1-phenyl-1,2-dihydropyridin-2-one]
- IC50 [2]: 400 nM

SMILES: O=c1c(-c2cccc3cccnc23)cc(-c2ccccn2)cn1-c1ccccc1 [Example 282, 3-(8-Quinolinyl)-5-(2-pyridyl)-1-phenyl-1,2-dihydropyridin-2-one]
- IC50 [1]: 9000 nM

SMILES: O=c1c(-c2cccc(Cl)c2)cc(-c2ccccn2)cn1-c1ccccc1 [Example 65, 3-(3-Chlorophenyl)-5-(2-pyridyl)-1-phenyl-1,2-dihydropyridin-2-one]
- IC50 [2]: 600 nM

SMILES: COc1ccc(-n2cc(-c3ccccn3)cc(-c3ccccc3C#N)c2=O)cn1 [Example 109, 3-(2-Cyanophenyl)-5-(2-pyridyl)-1-(2-methoxypyridyn-5-yl)-1,2-dihydropyridin-2-one]
- IC50 [2]: 10 nM

SMILES: N#Cc1ccccc1-c1cc(NC(=O)Nc2ccccc2)cn(-c2ccccc2)c1=O [Example 307, 3-(2-Cyanophenyl)-1-phenyl-5-[N-(N′-phenylureylenyl)]-1,2-dihydropyridin-2-one]
- IC50 [3]: 2000 nM

SMILES: COc1cccc(-n2cc(-c3ccccn3)cc(-c3ccccc3C#N)c2=O)c1 [Example 96, 3-(2-Cyanophenyl)-5-(2-pyridyl)-1-(3-methoxyphenyl)-1,2-dihydropyridin-2-one]
- IC50 [2]: 60 nM

SMILES: Cn1cccc2nc(-c3cc(-c4ccccc4C#N)c(=O)n(-c4ccccc4)c3)nc1-2 [Example 388, 3-(2-Cyanophenyl)-5-(4-methyl-imidazo[4.5-b]pyridin-2-yl)-1-phenyl-1,2-dihydropyridin-2-one]
- IC50 [3]: 2900 nM

SMILES: O=c1c(-c2nc3ccccc3[nH]2)cc(-c2ccccn2)cn1-c1ccccc1 [Example 190, 3-(1H-Benzimidazol-2-yl)-5-(2-pyridyl)-1-phenyl-1,2-dihydropyridin-2-one]
- IC50 [1]: 600 nM

SMILES: N#Cc1ccccc1-c1cc(-c2ccccn2)cn(-c2cccc(OCCN3CCCCC3)c2)c1=O [Example 240, 3-(2-Cyanophenyl)-1-[3-(piperidinoethoxy)phenyl]-5-(2-pyridyl)-1,2-dihydropyridin-2-one]
- IC50 [1]: 100 nM

SMILES: O=c1c(-c2ccc(N3CCCC3)nc2)cc(-c2ccccn2)cn1-c1ccccc1 [Example 285, 3-(2-Pyrrolidinopyridin-5-yl)-5-(2-pyridyl)-1-phenyl-1,2-dihydropyridin-2-one]
- IC50 [1]: 7200 nM

SMILES: N#Cc1ccccc1-c1cc(-c2ccccc2C#N)c(=O)n(-c2ccccc2)c1 [Example 36, 3-(2-Cyanophenyl)-5-(2-cyanophenyl)-1-phenyl-1,2-dihydropyridin-2-one]
- IC50 [2]: 1100 nM

SMILES: N#Cc1ccccc1-c1cc(-c2ccccn2)cn(-c2ccc(N)cc2)c1=O [Example 215, 1-(4-Aminophenyl)-3-(2-cyanophenyl)-5-(2-pyridyl)-1,2-dihydropyridin-2-one]
- IC50 [1]: 100 nM

SMILES: Nc1cccc(-c2cc(-c3ccccn3)cn(-c3ccccc3)c2=O)c1 [Example 220, 3-(3-Aminophenyl)-1-phenyl-5-(2-pyridyl)-1,2-dihydropyridin-2-one]
- IC50 [1]: 600 nM

SMILES: O=c1c(-c2ccccc2Cl)cc(-c2ccccn2)cn1-c1ccc(O)cc1 [Example 18, 3-(2-Chlorophenyl)-5-(2-pyridyl)-1-(4-hydroxyphenyl)-1,2-dihydropyridin-2-one]
- IC50 [2]: 20 nM

SMILES: COc1cccc(-c2cc(-c3ccccc3C#N)c(=O)n(-c3ccccc3)c2)n1 [Example 206, 3-(2-Cyanophenyl)-5-(2-methoxypyridin-6-yl)-1-phenyl-1,2-dihydropyridin-2-one]
- IC50 [1]: 500 nM

SMILES: N#Cc1ccccc1-c1cc(-c2ccc(N)cn2)cn(-c2ccccc2)c1=O [Example 217, 5-(5-Aminopyridin-2-yl)-3-(2-cyanophenyl)-1-phenyl-1,2-dihydropyridin-2-one]
- IC50 [1]: 1300 nM

SMILES: CSc1ccc(-n2cc(-c3ccccn3)cc(-c3cccnc3F)c2=O)cc1 [Example 84, 3-(2-Fluoro-3-pyridyl)-5-(2-pyridyl)-1-(4-methylthiophenyl)-1,2-dihydropyridin-2-one]
- IC50 [2]: 900 nM

SMILES: Cc1cccc(C)c1-c1cc(-c2ccccn2)cn(-c2cccnc2)c1=O [Example 135, 3-(2,6-Dimethylphenyl)-5-(2-pyridyl)-1-(3-pyridyl)-1,2-dihydropyridin-2-one]
- IC50 [1]: 40 nM

SMILES: N#Cc1ccccc1-c1cc(-c2ccccn2)cn(C2CCCN(Cc3ccccc3)C2)c1=O (stereo not drawn) [Example 379-B, 3-(2-Cyanophenyl)-5-(2-pyridyl)-1-(N-benzylpiperidin-3-yl)-1,2-dihydropyridin-2-one]
- IC50 [3]: 6400 nM

SMILES: N#Cc1ccccc1-c1cc(-c2cccc(C(N)=O)n2)cn(-c2ccccc2)c1=O [Example 235, 5-[(6-Aminocarbonyl)pyridin-2-yl]-3-(2-cyanophenyl)-1-phenyl-1,2-dihydropyridin-2-one]
- IC50 [1]: 4400 nM

SMILES: O=c1c(-c2ccccc2)cc(-c2ccccn2)cn1-c1cccc(F)c1 [Example 97, 3-Phenyl-5-(2-pyridyl)-1-(3-fluorophenyl)-1,2-dihydropyridin-2-one]
- IC50 [2]: 400 nM

SMILES: N#Cc1ccccc1-c1cc(-c2ncccc2N)cn(-c2ccccc2)c1=O [Example 216, 5-(3-Aminopyridin-2-yl)-3-(2-cyanophenyl)-1-phenyl-1,2-dihydropyridin-2-one]
- IC50 [1]: 2400 nM

SMILES: O=c1c(-c2nc3cc(Cl)c(Cl)cc3[nH]2)cc(-c2ccccn2)cn1-c1ccccc1 [Example 354, 3-(5.6-Dichloro-1H-benzimidazol-2-yl)-5-(2-pyridyl)-1-phenyl-1,2-dihydropyridin-2-one]
- IC50 [3]: 1500 nM

SMILES: Cc1nc(-c2ccccc2-c2cc(-c3ccccn3)cn(-c3ccccc3)c2=O)no1 [Example 193, 3-[2-(5-Methyl-1,2,4-oxadiazol-3-yl)phenyl]-1-phenyl-5-(2-pyridyl)-1,2-dihydropyridin-2-one]
- IC50 [1]: 400 nM
